Laboratory results reported in patent US20020110808A1, “Toxicant-induced differential gene expression” (priority 2000, published 2002).

What was measured:
HepG2 cells [1] = assay: Dot blot array expression assay
Method: The quality of the PCR reactions was assessed by agarose gel electrophoresis. Human genomic DNA (Clontech) and PCR products were robotically dotted in 100 nl aliquots onto positively-charged nylon membranes using the BioDot instrument (Cartesian Technologies, Inc.). After uv-crosslinking, the membranes were rinsed in 2× SSC and allowed to air-dry. Prior to addition of labeled cDNA probes, membranes were washed in boiling 1% SDS, rinsed with 6× SSC, and incubated in 5 mL of 42° C. Microhyb solution (Research Genetics) for 2 hr. Ten minutes prior to addition of the probes, the Microhyb solution was replaced with an equal amount of fresh 42° C. Microhyb solution containing denatured human Cot-1 DNA (Gibco BRL) and poly(dA) primer (Research Genetics) (both at final concentrations of 1 ng/μl).
For each reverse transcription reaction, 2 μg of mRNA was incubated with oligo(dT) primer (200 ng/μl) at 70° C. for 10 minutes. Tubes were chilled and spun briefly. The following reagents (with the final concentrations in parentheses) were added: first strand buffer (1×), DTT (10 mM), dNTP mix (1 mM each of dATP, dGTP, dTTP), [α-^33P]dCTP (3.3 μCi/μl) and Superscript II Reverse Transcriptase (10 units/μL). The samples were kept at 37° C. for 1.5 hr. Unincorporated nucleotides were removed by spinning the reaction mixture through a G-50 column. […] Probe quality was assessed by electrophoresis on a 10% denaturing polyacrylamide minigel. Denatured probes were added directly to the Microhyb solution and hybridized overnight at 42° C. Membranes were washed twice under each of the following conditions: (1) 2× SSC/0.1% SDS at room temperature, 5 min; (2) 0.2× SSC/0.1% SDS at room temperature, 5 min; (3) 0.2× SSC/0.1% SDS at 42° C., 15 min, (4) 0.1× SSC/0.1% SDS at 68° C., 15 min. Membranes were then rinsed briefly in 2× SSC at room temperature, covered with Saran wrap, and exposed to storage phoshpor screens. After three days, screens were scanned using a Storm phosphorimager (Molecular Dynamics). Images were analyzed using ImageQuant software (Molecular Dynamics).
We employed a rapid dot blot assay as a secondary screen for gene expression changes. We tested each of the unique clones against each of the three treatments. […] For these clones, the dot blot assay functioned not as a confirmation assay but as an initial screen for differential expression. Dot blots were prepared by robotically arraying subclone-derived PCR products in quadruplicate onto positively charged nylon membranes. […] In general, each dot consisted of over 80 ng of PCR product, as estimated by inspection of the PCR reactions run on agarose gels. This high quantity of DNA ensured that saturation of spots, with consequent loss of quantitation, would not occur. Spots of genomic DNA were included on each filter to allow normalization between control and treated sample intensities.

HepG2 cells [2] = assay: cDNA array (GF200) expression profiling; type: cell-based, human
Method: Cells were grown in DMEM/F12 medium with 10% fetal bovine serum in tissue culture flasks for 3 days following splitting, at which time they were at or near confluency. […] For each treated sample, an untreated control flask was set up with the same medium. Following the treatment period, mRNA was isolated by affinity purification on oligo(dT) cellulose resin using the Poly(A) Pure mRNA isolation kit from Ambion. RNA quality was assessed by agarose gel electrophoresis, and yields were determined by absorbance at 260 nm.
Radiolabeled cDNA for array hybridizations were prepared as follows. To a solution of 2 μg of RNA in 8 μl DEPC-treated water was added 2 μl of 1 μg/μl oligo(dT) (10-20 mer mixture, Research Genetics). After incubation for 10 min at 70° C., the solution was chilled on ice for 2 min, and then added to 6 μl of 5× first strand buffer (250 mM Tris-HCl (pH 8.3), 375 mM KCl, 15 mM MgCl2; Gibco-BRL), 1 μl of 0.1M DTT, 1.5 μl dNTP mix (20 mM each dATP, dGTP and dTTP), 10 μl of 10 mCi/ml [α-^33P]dCTP (1000 Ci/mmol, Amersham), and 1.5 μl of 200 U/μl reverse transcriptase (Superscript II, Gibco-BRL). Following a 90 min incubation at 37° C., cDNA targets were purified by passage through G-50 Sephadex spin columns (Pharmacia) or Bio-Spin 6 columns (BioRad).
GF200 cDNA arrays (Research Genetics) were washed in 0.5% boiling SDS for 5 min and prehybridized for 3 hrs at 42° C. in 5 ml MicroHyb solution (Research Genetics) containing 5 μl of 1 μg/ml poly(dA) (Research Genetics) and 5 μl of 1 μg/ml human Cot-I DNA (Gibco-BRL) that was denatured for 3 min at 100° C. prior to use. Labeled target nucleic acids, boiled for 3 min, were added directly, and hybridization was allowed to proceed for 16-18 hr at 42° C. in roller bottles in hybridization ovens. Arrays were washed twice in 2× SSC, 1% SDS at room temperature for 2 min, and then twice in 0.5× SSC, 1% SDS at 65° C. for 20 min. Arrays were exposed to storage phosphor screens for 3 days and scanned using a phosphorimager (Molecular Dynamics). Arrays were stripped for reuse by placing in boiling 0.5% SDS and then incubating for 1.5 hr with shaking at room temperature, allowing to solution to cool. After stripping, arrays were exposed to storage phosphor screens overnight to confirm loss of signal.
Spot intensities were determined using Pathways software (Research Genetics). Data from quadruplicate sets of hybridizations were normalized by local regression using NLR software (Tom Kepler, North Carolina State University). Cluster analysis was carried out using the Clustan Graphics software package from Clustan Limited (Edinburgh).

[3] = 24 hr, 20 mM APAP, 16 mM CAF, 100 mM THI

## CC(=N)S [thioacetamide]
HepG2 cells [1]; 24 hr treatments
  Fold change, down-regulation: EST (AA283846), clone 90-1: 7.7 fold
  Fold change, down-regulation: EST (AA805555), clone 83: 11.1 fold
  Fold change, down-regulation: EST (AI310515), clone 32-2: 9.1 fold
  Fold change, down-regulation: Lactate dehydrogenase A, clone A24-1: 5.0 fold
  Fold change, down-regulation: Pyruvate dehydrogenase E1-beta subunit, clone A123: 12.5 fold
  Fold change, down-regulation: Transforming growth factor-beta type III receptor, clone A155-6: 3.0 fold
  Fold change, up-regulation: Activating transcription factor 4, clone A108D: 3.8 fold
  Fold change, up-regulation: EST (N22016), clone AI24-6: up
  Fold change, up-regulation: EST, similar to ubiquitin hydrolase, clone A130-3: up
HepG2 cells [1]; [3]
  Dot blot expression ratio (treated/control): 90-kDa heat-shock protein, clone 23: 0.96 n
  Dot blot expression ratio (treated/control): ABC transporter, clone 31-4: 0.28
  Dot blot expression ratio (treated/control): AH antigen, clone A136-1: 0.00
  Dot blot expression ratio (treated/control): Activating transcription factor 4, clone A108D: 3.77
  Dot blot expression ratio (treated/control): Apolipoprotein B-100, clone A124-1: 0.76
  Dot blot expression ratio (treated/control): Atopy related autoantigen CALC, clone A182-1: 0.66
  Dot blot expression ratio (treated/control): Centromere protein E (CENPE), clone A187-5: 0.65
  Dot blot expression ratio (treated/control): Centromere protein F (400 kD) (CENPF kinetochore protein), clone A136: 1.98
  Dot blot expression ratio (treated/control): Cu/Zn superoxide dismutase (SOD), clone A94-4: 0.91
  Dot blot expression ratio (treated/control): DB1, clone A176-3: 0.36
  Dot blot expression ratio (treated/control): DNA topoisomerase II binding protein, clone A172: 0.49
  Dot blot expression ratio (treated/control): E1B 19K/Bcl-2-binding protein Nip3, clone 81-6: 0.23 c
  Dot blot expression ratio (treated/control): EST (AA283846), clone 90-1: 0.13 c
  Dot blot expression ratio (treated/control): EST (AA430551), clone A160-5: 0.17
  Dot blot expression ratio (treated/control): EST (AA581887), clone 102-2: 1.80 n
  Dot blot expression ratio (treated/control): EST (AA581887), clone A102-1: 1.78 n
  Dot blot expression ratio (treated/control): EST (AA805555), clone 83: 0.09 c
  Dot blot expression ratio (treated/control): EST (AC007400), clone A95-1: 1.07
  Dot blot expression ratio (treated/control): EST (AI049999), clone A104-5: 0.89
  Dot blot expression ratio (treated/control): EST (AI310515), clone 32-2: 0.11 c
  Dot blot expression ratio (treated/control): EST (N22016), clone A124-6: up
  Dot blot expression ratio (treated/control): EST (N26592), clone 101: 0.26 c
  Dot blot expression ratio (treated/control): EST (N39662), clone A99-1: 0.50
  Dot blot expression ratio (treated/control): EST (W44772), clone 87: 1.11 n
  Dot blot expression ratio (treated/control): EST, bithoraxoid-like protein, clone A183-1: 0.42
  Dot blot expression ratio (treated/control): EST, similar to Long-chain acyl-coenzyme A synthetase, clone A105-7: 0.90
  Dot blot expression ratio (treated/control): EST, similar to Ubiquinol cytochrome C reductase core protein 2, clone 93: 0.38 c
  Dot blot expression ratio (treated/control): EST, similar to arachidonate 15-lipoxygenase, clone 84: 0.75 n
  Dot blot expression ratio (treated/control): EST, similar to ubiquitin hydrolase, clone A130-3: up
  Dot blot expression ratio (treated/control): Esterase D/formylglutathione hydrolase, clone 24: 0.31 c
  Dot blot expression ratio (treated/control): G1 to S phasetransition 1 (GSPT1), clone 103-2: 1.57 n
  Dot blot expression ratio (treated/control): Glucose transporter pseudogene, clone 23-1: 0.34
  Dot blot expression ratio (treated/control): High mobility group 2 protein (HMG-2), clone A111-8: 1.12
  Dot blot expression ratio (treated/control): Human Alu-Sc subfamily consensus sequence, clone A96-4: 0.84
  Dot blot expression ratio (treated/control): Human transposon-like element mRNA, clone A135-3: 0.59
  Dot blot expression ratio (treated/control): Interleukin 6 signal transducer (gp130, oncostatin M receptor), clone 65-1: 0.96 n
  Dot blot expression ratio (treated/control): Ku autoimmune antigen, clone 27-2: 0.47 c
  Dot blot expression ratio (treated/control): Lactate dehydrogenase A, clone A24-1: 0.20 c
  Dot blot expression ratio (treated/control): Lipoprotein-associated coagulation inhibitor, clone A94-3: 0.27 c
  Dot blot expression ratio (treated/control): Liver microsomal UDP-glucuronosyltransferase (UDPGT), clone A128-7: 0.70
  Dot blot expression ratio (treated/control): Lsm5 protein, clone A115-5: 0.39
  Dot blot expression ratio (treated/control): MEGF9, clone 74: 0.96 n
  Dot blot expression ratio (treated/control): Myristoyl CoA:protein N-myristoyltransferase, clone 82: 0.41
  Dot blot expression ratio (treated/control): NADH dehydrogenase subunit 2, clone A131-1: 1.45
  Dot blot expression ratio (treated/control): Nucleosome assembly protein 1-1ike 1 (NAP1L1), clone 20-2: 0.92 n
  Dot blot expression ratio (treated/control): PPP1R5 gene, clone 30-5: 0.17 c
  Dot blot expression ratio (treated/control): T-complex polypeptide 1, clone 21-2: 1.03
  Dot blot expression ratio (treated/control): Transforming growth factor-beta type III receptor, clone A155-6: 0.33
  Dot blot expression ratio (treated/control): cAMP-responsive enhancer binding protein, alt. spliced (CREB327), clone 98: 0.70 n
  Dot blot expression ratio (treated/control): procollagen-lysine 2-oxoglutarate 5-dioxygenase 2, clone A185: 0.36
  Dot blot expression ratio (treated/control): pyruvate dehydrogenase El-beta subunit, clone A123: 0.08
HepG2 cells [1]; 24 hr, two-fold threshold
  Number of 27 unconfirmed or non-matching clones showing an expression change: 9
HepG2 cells [2]
  Metallothionein-1H induction: strongly induced
HepG2 cells [2]; 1 to 24 hr time course, 20 mM acetaminophen, 16 mM caffeine, 100 mM thioacetamide
  Number of genes with statistically significant (p<0.05) change in expression in three or more adjacent time points: 215
HepG2 cells [2]; 1 to 24 hr, 20 mM acetaminophen, 16 mM caffeine, 100 mM thioacetamide
  Global differential gene expression (rms) over time: a high degree of differential expression is observed both at early and late time points
HepG2 cells [2]; Thioacetamide (24 hr)
  Expression ratio (treated/control), Array: MT-1B (H72722): 15
  Expression ratio (treated/control), Array: MT-1G (H53340): 15
  Expression ratio (treated/control), Array: MT-1H (H77766): 16
  Expression ratio (treated/control), Array: MT-1L (N80129): 14
  Expression ratio (treated/control), Array: MT-2 (R16596): 15
